Measurements reported in US6713051B2, “Antiperspirant or deodorant compositions” (Unilever Home & Personal Care USA division of Conopco, Inc., priority 2001, dated 2004).

Experiments:
Format in all cases: cell-based
[1] = test system: interleukin-6 (IL-6); assay: Skin organotypic culture analysis: AP-induced IL-6 release into the medium; conditions: for IL-6 release (mean ± SD): 24 h, Nil 21.5, AP 57.1
Protocol: (§1) The cultures were then incubated at 37° C., 5% CO2, and 95% relative humidity (standard cell culture conditions) for 24 h. The culture medium was assayed for the pro-inflammatory cytokine interleukin-6 (IL-6) and after washing to remove the AP formulation, the viability of the culture was determined using the Thiazoyl blue (MTT) assay (Mosmann, T. J. Immunol. Methods 65, p55 (1983). IL-6 was determined using an Immunoassay (Quantikine, R&D systems).
(§2) In this Example, skin organotypic cultures (Epiderm™, MatTek, USA) were treated topically with the above-identified AP formulation and the trans-10-cis-12 conjugated linoleic acid (TC CLA) was introduced into the medium. The cultures were then incubated at 37° C., 5% CO2, and 95% relative humidity (standard cell culture conditions) for 24 h. The culture medium was assayed for the pro-inflammatory cytokine interleukin-6 (IL-6) and after washing to remove the AP formulation, the viability of the culture was determined by the method described in Example 2.
as §1, with “hours.” for “h.”, “MTT assay.” for “Thiazoyl blue (MTT) assay (Mosmann, T. J. Immunol. Methods 65, p55 (1983).”, “ELISA assay (R&D” for “Immunoassay (Quantikine, R&D”

[2] = test system: Human foreskin keratinocytes; assay: Keratinocyte proliferation analysis (DNA content per well, Pico Green); conditions: for DNA: 4 days, control (0 μM) 3.5
Protocol: Human foreskin keratinocytes (passage 3) were seeded at 4000 cells/well in 96 well plates in Keratinocyte Growth Medium (abbreviated to KGM) containing 0.03 mM calcium and grown for 3 days at 37° C. The cells were then treated with PPAR ligands in KGM containing 0.03 mM calcium for 4 days prior to harvest. Stock solutions of PPAR ligands were dissolved in dimethylsulphoxide (DMSO) and diluted in KGM before adding to the cells. […] The harvested cells were washed 3× in phosphate buffered saline (PBS) and extracted in 1% Triton X100, 50 mM (tris[hydroxymethyl]aminomethane) (Tris) pH 8.0 plus protease inhibitors pepstatin and leupeptin (100 μl/well). The extract was assayed for DNA content using the Pico Green DNA assay (Molecular Probes, Inc.).
Cultured keratinocytes were treated with cis-9-trans-11 conjugated linoleic acid (CT-CLA) for 4 days. The cells were extracted with Tris-1% Triton X100 and the DNA content per well was determine by the Pico Green assay in accordance with the above described procedure.

[3] = test system: skin organotypic cultures (Epiderm); assay: Viability of skin organotypic cultures (MTT assay)
Protocol: as §1, §2
as §1, with “hours.” for “h.”, “MTT assay.” for “Thiazoyl blue (MTT) assay (Mosmann, T. J. Immunol. Methods 65, p55 (1983).”, “ELISA assay (R&D” for “Immunoassay (Quantikine, R&D”

CC\C=C/C=C/C=C/C=C\CCCCCCCC(=O)O [cis parinaric acid, cis-parinaric acid]
AP-induced IL-6 release ([1]; 1-100 μM, Dunnet's test p<0.05): significantly decrease
IL-6 release (mean ± SD) ([1]; Table 14: 1.0 μM (+ AP)): 26.8
IL-6 release (mean ± SD) ([1]; Table 14: 10.0 μM (+ AP)): 23.3
IL-6 release (mean ± SD) ([1]; Table 14: 100.0 μM (+ AP)): 25.7
keratinocyte DNA synthesis activity, statement ([2]; Example 12: 10 and 20 μM, 1 way ANOVA, p<0.05): significantly reduce
DNA ([2]; Table 13: 1 μM): 3.3 ng/well
DNA ([2]; Table 13: 5 μM): 4.1 ng/well
DNA ([2]; Table 13: 10 μM): 2.6 ng/well
DNA ([2]; Table 13: 20 μM): 1.5 ng/well
Culture viability [3]: not significantly different
